Test results taken from patent EP0322396A1, “Benzimidazole derivatives, their preparation and use” (Gerot-Pharmazeutika Gesellschaft m.b.H., priority 1987, dated 1989).

Assays:
[1] = Tolerability (test not described); assay type: in vivo; conditions: compared with the reference Prazosin
[2] = system: Blutdruck der Ratte; assay: Blood pressure lowering in the rat after i.v. administration; assay type: in vivo; conditions: i.v. 1,0 mg/kg, after 3 hours, compared with Nifedipin and Verapamil at the same dose
[3] = in vivo; conditions: mouse, iv, Maus i.v.

Row | SMILES | Verträglichkeit [1] | senkt den Blutdruck der Ratte [2] | LD50 [3]
1 | CC(O)CC(=O)N1CCC(n2c(=O)[nH]c3ccccc32)CC1 (stereo not drawn) [Beispiel 1, 1-(3-Hydroxybutyryl)-4-(2-oxo-1-benzimidazolinyl)-piperidin] | wesentlich verträglicher als die Vergleichssubstanz | – | –
2 | COC(=O)C1=C(C)NC(C)=C(C(=O)OCCCN2CCC(n3c(=O)[nH]c4ccccc43)CC2)C1c1cccc([N+](=O)[O-])c1 (stereo not drawn) [Beispiel 4, 2,6-Dimethyl-3-{3-(4-(2-oxo-1-benzimidazolinyl)-1-piperidino]-propyloxy-carbonyl}-4-(3-nitro-phenyl)-5-methoxycarbonyl-1,4-dihydropyridin] | – | noch stärker als Nifedipin oder Verapamil | 128 mg/kg
